# Reference: patent publication US20230105701A1, “DISSOLUTION-ENHANCED OLAPARIB COMPOSITION” (SHANGHAI INSTITUTE OF MATERIA MEDICA, CHINESE ACADEMY OF …, priority 2020, published 2023)
# What was measured:
# [1] = within the physiological pH range; cited from earlier work
# [2] = Solubility test (supersaturated solubility by HPLC); format: physicochemical; conditions: pH 4.0 citric acid/disodium hydrogen phosphate buffer, aqueous buffer, thermodynamic from solid, pH 4.0 citrate buffer, 37° C., shaker 100 rpm, equivalent to 10 mg olaparib in 5 ml, average of 2 runs
# Procedure: The dissolution-enhanced olaparib compositions prepared in Preparation Examples 1-3 and Comparative Examples 1-8 and the olaparib API (free base) were taken in an amount equivalent to 10 mg of olaparib, dispersed in 5 ml of a pH 4.0 buffer (citric acid: 21 g/L: disodium hydrogen phosphate 71.63 g/L=61.45:38.55) as the solvent and shaken in a shaker at 100 rpm for 2 h at 37° C., and sampled. The samples were centrifugal filtered and measured by HPLC to determine the supersaturated solubility. The average value was obtained from 2 parallel runs.
# The operation conditions of the HPLC were:
# Apparatus: A liquid chromatograph with a UV detector;
# Chromatographic Waters Sunfire C18, 4.6 mm*50 mm
# Eluent: A: 0.1% TFA in water; B: 0.1% TFA in acetonitrile;
# [3] = cited from earlier work
structure (smiles),measurement,setting,value
"O=C(c1cc(Cc2n[nH]c(=O)c3ccccc23)ccc1F)N1CCN(C(=O)C2CC2)CC1 [Olaparib API, 1-(cyclopropanoyl)-4-[5-[(3,4-dihydro-4-oxo-1-phthalazinyl)methyl]-2-fluorobenzoyl]piperazine]",solubility,[1],less than 0.2 mg/ml
same,solubility at 2 h,[2],118 µg/mL
same,permeability,[3],medium
